Where a name gives a salt, the structure may show the parent alone.
Key:
[1] = MTT cell viability assay (cytotoxicity), SH-SY5Y; settings: human, SH-SY5Y neuroblastoma cells
Method: Neuroblastoma cell line SH-SY5Y (94030304) was acquired from the European Collection of Cell Cultures (ECACC, Salisbury, UK). Cells were cultured in a medium prepared with RPMI basic media supplemented with 10% heat-inactivated FBS (fetal bovine serum), 2 mM L-glutamine, 1% antibiotics (penicillin/streptomycin), and incubated at 37 °C in a humidified atmosphere containing 5% of CO2. The culture’s medium was replaced at a time interval of 2–3 days.
(§1) Cell viability was assessed via the mitochondrial reductase-dependent reaction of (3-(4,5-dimethylthiazol-2-yl)- 2,5-diphenyl tetrazolium bromide (MTT, cat. no. 475989, Calbiochem, Merck KGaA, Darmstadt, Germany). The SH-SY5Y and bEnd3 cell lines were seeded in 96-well plates at a density of 0.7 × 10^4 (bEnd3) or 2 × 10^4 (SH-SY5Y) cells/well and allowed to adhere for 24 h at 37 °C, 5% CO2. Then, the cells were incubated with the compounds (1–500 μM) for a preset time (24 h). For the solvent, the control cells were treated with DMSO corresponding to the highest concentration of DMSO in the samples (0.5% DMSO) in order to exclude its cytotoxic effect on the cells. For each concentration, a set of at least 6 wells were used. After incubation, the solution from each well was exchanged with fresh culture medium (100 µL/well), containing the MTT reagent (0.5 mg/mL) and incubated for 3 h at 37 °C in a humidified atmosphere and 5% CO2. The obtained formazan crystals were dissolved in 100 µL/well of 5% formic acid in propan-2-ol solution (or DMSO). The absorbance was measured at 570 nm via multiplate reader Tecan Infinite F200 PRO (Tecan Trading AG., Männedorf, Switzerland) or Synergy 2 (BioTek Instruments, Inc., Highland Park, Winooski, VT, USA).
(§2) Both the SH-SY5Y and bEnd3 cells were treated with the test compounds in a concentration range from 1 to 500 µM for 24 h.

[2] = test system: SH-SY5Y cells; assay: H2O2-induced oxidative stress model in SH-SY5Y cells; format: cell-based, human; settings: H2O2 1 mM 15 min
Method: The SH-SY5Y cells were seeded in 96-well plates at a density of 3.5 × 10^4/well in 100 μL of RPMI supplemented with FBS for 24 h. Then, the cell medium was aspirated, and the cells were treated with different concentrations of the compounds—1, 10, and 50 µM for 90 min. Afterwards, the SH-SY5Y cells were washed with PBS and were exposed to hydrogen peroxide (H2O2) (1 mM in PBS for 15 min) to induce oxidative stress. All well contents were replaced by fresh culture medium and incubated for 24 h. MTT assay was used to evaluate the amount of attached viable cells. Negative controls (cells without H2O2 treatment) were considered as 100% protection and H2O2-treated cells as 0% protection.
To evaluate the possible neuroprotective effects of the compounds, the SH-SY5Y cells were pre-treated with different concentrations (1, 10, 50 µM) for 90 min and then exposed to H2O2 (1 mM) for 15 min. The cell viability of all compounds was measured to verify their protective effect against the toxicity of hydrogen peroxide.

[3] = test system: isolated rat-brain synaptosomes; assay: Synaptosomal viability (MTT), substances administered alone
Method: (§3) Preparation of the synaptosomes was carried out by multiple centrifugations using the Percoll gradient. Homogenization of the brains was performed in 10 volumes of cold buffer 1, which contained 5 mM HEPES and 0.32 M sucrose (pH = 7.4), followed by centrifugation at different speeds. For preparation of the gradient, the synaptosomes were isolated by Percoll reagent. Synaptosomes were resuspended and incubated in buffer 2, which contained 290 mM NaCl, 0.95 mM MgCl2x6H2O, 10 mM KCl, 2.4 mM CaCl2xH2O, 2.1 mM NaH2PO4, 44 mM HEPES, and 13 mM D-glucose. Incubations were performed in a 5% CO2 + 95% O2 atmosphere. The method of Lowry et al., using bovine serum albumin as a standard content, was applied for determination of synaptosomal protein [51].
Synaptosomal viability was monitored based on a (3-(4,5)-dimethylthiazol-2-yl)-2,5-diphenyl tetrazolium bromide) assay. After incubation with the compounds, synaptosomes were treated with 0.5 mg/mL solution of (3-(4,5)-dimethylthiazol-2-yl)-2,5-diphenyl tetrazolium bromide) for 10 min at […]. Then, the synaptosomes were centrifuged twice at 15,000× g for 1 min. The resulting formazan crystals were dissolved in DMSO (dimethyl sulfoxide), and the extinction was determined by spectrophotometric measurements at 580–660 nm. […]

[4] = test system: isolated rat-brain synaptosomes; assay: Level of reduced glutathione (GSH) in isolated synaptosomes, substances administered alone
Method: as §3
After the treatment with the tested compounds, the glutathione levels of the synaptosomes were determined with an Ellman reagent (DTNB). The GSH levels were evaluated based on the synaptosomal sediment, precipitated with 5% TCA, and centrifuged for 10 min at 4000× g. GSH levels in the supernatant were measured spectrophotometrically at 412 nm by a Spectro UV-vis split spectrophotometer (LaboMed. Inc., Los Angelis, California, USA). […]

[5] = test system: isolated rat-brain synaptosomes; assay: 6-OHDA-induced neurotoxicity in isolated rat synaptosomes, synaptosomal viability; format: cell-based; settings: Rattus norvegicus; 10 µM pre-incubation 30 min, then 150 µM 6-OHDA 1 h; read-out: synaptosomal viability (SV) preserved, as compared to 6-OHDA
Method: (§4) This neurotoxicity model was based on the metabolism and auto-oxidation of 6-hydroxy dopamine responsible for the reactive oxygen species and quinones generation, ultimately leading to neurotoxicity and neurodegeneration. The experiment was performed by pre-incubation of the synaptosomes with 10 µM of the compounds for 30 min, followed by the addition of 150 µM 6-hydroxy dopamine for induction of neurotoxicity. After 1 h, they were centrifuged twice for 1 min at 15,000 × g. After the second wash, the precipitates were resolved with buffer B and glucose.

[6] = test system: isolated rat-brain synaptosomes; assay: 6-OHDA-induced neurotoxicity in isolated rat synaptosomes, GSH level; format: cell-based; settings: 10 µM pre-incubation 30 min, then 150 µM 6-OHDA 1 h
Method: as §4

[7] = MTT cell viability assay (cytotoxicity), bEnd3; format: cell-based, mouse; settings: mouse, bEnd3 brain endothelial cells, 1–500 µM
Method: Mouse-brain endothelial cell line bEnd3 [36] (CRL-2299) was purchased from the American Type Culture Collection (ATCC, Manassas, VA, USA). The cells were cultured in DMEM (Dulbeco’s modified essential medium) (cat. no. 30-2002, ATCC, Manassas, VA, USA), supplemented with 10% heat-inactivated FBS (cat. no. F7524, Sigma-Aldrich Co. LLC, St. Louis, MO, USA), 1 mM L-glutamine (cat. no. G7513, Sigma-Aldrich Co. LLC, St. Louis, MO, USA) and 1× Antibiotic-Antimycotic solution (penicillin: streptomycin: amphotericin B (100 U/mL: 0.10 mg/mL: 0.25 µg/mL) (cat. no. A5955, Sigma-Aldrich Co. LLC, St. Louis, MO, USA) at 37 °C in a humidified atmosphere containing 5% CO2. The cells were passaged in 75 cm^2 flasks every 3–5 days via trypsinization (StableCell Trypsin solution, cat. no. T2610, Sigma-Aldrich Co. LLC, St. Louis, MO, USA).
as §1, §2

[8] = Fe(II)-induced lipid peroxidation assay (LP assay, TBARS); format: biochemical; settings: 90 µM, lecithin 1 mg/mL, 0.1 mM FeCl2; lower = stronger antioxidant
Method: (§5) The lipid peroxidation assay and a modification of the deoxyribose-degradation assay were used. Two types of measurement compositions in phosphate buffer (PB–K2HPO4/KH2PO4, pH 7.4) were prepared for both tests: (i) samples, containing the biologically relevant molecules (lecithin emulsion or deoxyribose), iron, and the tested hydrazones at the concentrations indicated below the figures; and (ii) controls, in which the tested hydrazones were omitted. The data for the sample activity were presented as a percentage of the control measurement.
The thiobarbituric-acid reactive-substance colorimetric test was performed in a model system of Fe(II)-induced lipid peroxidation as an emulsion prepared from egg yolk phospholipids. Each sample contained 1 mg/mL of lecithin. LP was initiated using 0.1 mM FeCl2. After 30 min incubation at 37 °C, 0.5 mL of 2.8% trichloroacetic acid solution and 0.5 mL of 0.5% thiobarbituric acid solution were added, following a second incubation at 100 °C for 20 min. Centrifugation at 3000 rpm for 20 min at 4 °C was performed, and we determined the absorbance value of the supernatant at 532 nm via Shimadzu UV-1601 UV-VIS spectrophotometer.

[9] = Fe(II)-induced deoxyribose degradation assay; format: biochemical; settings: 80 µM, 2-deoxyribose 0.5 mM, 0.1 mM FeCl2; lower = stronger antioxidant
Method: as §5
The deoxyribose (0.5 mM) damage was induced by adding FeCl2 (0.1 mM). The measurement compositions were incubated at 37 °C for 30 min. The next step comprised adding 0.5 mL of 2.8% trichloroacetic acid and 0.5 mL of thiobarbituric acid. Then, the samples were heated in boiling water for 20 min, and their absorbance was estimated at 532 nm (characteristic band for the generated chromophore) via Shimadzu UV-1601 UV-vis spectrophotometer.

[10] = O-phenanthroline Fe(II) chelation test; format: physicochemical; settings: 200 µM compound, FeCl2
Method: The Fe (II)-chelating activity of the tested hydrazones was determined by the O-phenanthroline method. A total of 1 mL sample solutions of 50 mM PB pH 7 contained 0.2 mM O-phenanthroline and 0.05 mM FeCl2 and 0.2 mM hydrazone. In the controls, the tested compounds were omitted. Absorbance was measured at 515 nm via GENESYS 50 UV-VIS spectrophotometer after incubation for 5 min at 37 °C. The data for the sample activity were presented as a percentage of the control measurement. Absorbance spectra of all the samples, the control, and the measurement compositions containing the tested hydrazones and Fe(II) at the concentrations used in the samples were measured.
To explain the results of both systems of Fe(II)-induced oxidative damage, we studied the potency of the tested compounds to chelate-iron (Fe(II)). This was studied by spectrophotometric determination of free iron (Fe(II)) using the ortho-phenanthroline test, as 1,10-phenantroline reacts rapidly with Fe(II) ions in weakly acidic media, generating an orange–red complex (ferroin) with characteristic absorbance spectra (molar absorptivity 1.10.104 (α = 0.20) at ~max 512 nm and a molar ratio 3:1 (R: Fe(II))). The generated complex was stable, and the bound Fe(II) was resistant to oxidation. Lower absorbance of the reaction mixture indicated higher Fe^2+-chelating activity.

[11] = Superoxide radical scavenging, xanthine/xanthine oxidase/NBT system; format: biochemical
Method: The 1 mL cuvette for the control contained 1 mM xanthine, 20 µL xanthine oxidase (100 IU/L), and 0.04 mM NBT [43, 44]. In the sample compositions, the tested hydrazones at different concentrations were added. All measurement compositions were incubated at 37 °C, and the absorbance was determined spectrophotometrically at 560 nm via Shimadzu UV-1601 UV-vis spectrophotometer.
The potential capability of the investigated compounds to prevent the superoxide-anion radical-induced NBT reduction was investigated spectrophotometrically by xanthine-oxidase assay. The assay was carried out at the final concentration of the tested compounds, at 1, 10, 50, and 100 µM.

Row | SMILES | IC50 at 24 h [1] [µM] | viability at 10 µM [5] [%] | IC50 at 24 h [7] [µM] | absorbance ratio sample/control (lipid peroxidation) [8] | absorbance ratio, % of the controls (deoxyribose degradation) [9] | absorbance at 515 nm compared to the controls (Fe(II) chelation) [10] | further results
1 | C#CCN[C@@H]1CCc2ccccc21 [Rasagiline.HCl, Rasagiline] | > 500 | 67 |  |  |  |  | protective effect: increased cell viability of SH-SY5Y vs. H2O2 group ([2]; 10 µM pre-treatment 90 min): 40%; protective effect: increased cell viability of SH-SY5Y vs. H2O2 group ([2]; 50 µM pre-treatment 90 min): 46%; reduction of synaptosomal viability (SV) vs. non-treated synaptosomes ([3]; 100 µM): 25%; reduction of GSH level vs. non-treated synaptosomes ([4]; 100 µM): did not decrease; GSH level preserved, as compared to 6-OHDA [6]: 80%
2 | O=C(CCc1c[nH]c2ccccc12)NN=Cc1ccc(O)cc1O [Compound 3c, N′-(2,4-Dihydroxybenzylidene)-3-(1H-indol-3-yl)propanehydrazide] | 275 | 33 | > 500 | below 65% | did not induce a modulating effect | statistically identical absorbance values at 515 nm, as compared to the controls | absorbance ratio (NBT reduction, % of control) ([11]; 1, 10, 50 and 100 µM): did not influence the estimated absorbance ratio at any of the tested concentrations; melting point: 239 to 240 °C
3 | O=C(CCc1c[nH]c2ccccc12)NN=Cc1ccc(O)c(O)c1 [Compound 3b, N′-(3,4-Dihydroxybenzylidene)-3-(1H-indol-3-yl)propanehydrazide] | 265 | 33 | 352 | below 65% |  | statistically identical absorbance values at 515 nm, as compared to the controls | decrease of NBT reduction as compared to the controls ([11]; 100 µM (highest tested concentration)): more than 40%
4 | O=c1c(O)c(-c2ccc(O)c(O)c2)oc2cc(O)cc(O)c12 [quercetin, reference compound] |  |  |  | 23% | about 50% |  | 
5 | NCCc1cc(O)c(O)cc1O [Compound 6-OHDA, 6-hydroxydopamine] |  |  |  |  |  |  | decrease of synaptosomal viability (SV) vs. non-treated synaptosomes ([3]; 150 µM): 55%; decrease of GSH level vs. non-treated synaptosomes ([4]; 150 µM): 50%

— publication PMC10135567, “New Indole-3-Propionic Acid and 5-Methoxy-Indole Carboxylic Acid Derived Hydrazone Hybrids as Multifunctional Neuroprotectors” (Antioxidants, 2023)
